Assay results reported in US8691943B2, “Antimicrobial activity of chicken NK-2 peptide against apicomplexan protozoa” (priority 2011, dated 2014).
Where no end group is shown, it is not given here.

Experiments:
[1] = tested on: E. acervulina sporozoites; assay: Eimeria acervulina sporozoite viability by trypan blue exclusion; format: cell-based; settings: for effect on E. acervulina sporozoites viability: peptide 1 μM to 10 μM, 1 h, 3 h, 6 h at 41° C.
Procedure: FIG. 1 depicts the cytotoxic activity of chicken NK-lysin peptides for Eimeria acervulina sporozoites. E. acervulina sporozoites (2×10^6/ml) were incubated with control medium (HBSS) and 4 kinds of NK-lysin peptides (50 ug/ml, 100 ug/ml) for 3 h at 41° C. Sporozoite viability was assessed by trypan blue exclusion. Experiments were done in triplicate and considered significant at P<0.01.
For investigating the kinetics of NK-lysin peptides, E. acervulina sporozoites (1.5×10^6/ml) were incubated with NK-lysin-transfected COS7 cell supernatant (1:1 dilution) and various concentrations of melittin, cNK-2 or cNK-4 for 1 h, 3 h and 6 h at 41° C.; sporozoite viability was assessed by trypan blue exclusion. Experiments were performed in triplicate.
E. acervulina sporozoites were obtained by excystation of sporulated oocysts (Dulski and Turner. 1988. Avian Dis. 32:235-239). After breaking the oocyst membrane with 0.5 mm glass beads by Mini-beadbeater (BioSpec Products Inc., Bartlesville, Okla.), sporocysts were purified by isopycnic centrifugation on a Percoll gradient, washed in cold PBS, then treated with excystation solution (0.25% trypsin, 0.014 M taurocholic acid) for 30 min at 41° C. to release sporozoites. Excystation fluid was filtered and the sporozoites were washed 3 times with cold HBSS at 3,000 rpm for 10 min at 4° C. and resuspended to 1.0×10^6/ml in HBSS or 10% RPMI-1640 medium (Sigma) (Hong et al. 2008, supra). The sporozoites were incubated for 1 h, 3 h or 6 h at 41° C. with NK-lysin-transfected COS7 cell supernatants, melittin or synthetic chicken NK-lysin peptides, stained with trypan blue, and viable sporozoites were counted microscopically.
To compare the effect of four kinds of chicken NK-lysin peptides on Eimeria acervulina sporozoites, Eimeria sporozoites were incubated in 50 μg/ml and 100 ug/ml of each peptide for 3 h at 41° C., respectively. The HBSS was used as a control. […] In contrast, other peptides or control didn't kill Eimeria sporozoites (FIG. 1).
We next investigated the cytolytic activity of cNK-2 lytic peptide at increasing concentrations from 1 μM to 10 μM (FIG. 2). Melittin was used as a positive control to gain peptide-induced lysis in the absence of a phospholipid preference (Dempsey, C. E. 1990. Biochim. Biophys. Acta 1031:143-161).

[2] = tested on: E. coli strain BMH71-18; assay: Bactericidal activity, broth microdilution assay (OD600); format: cell-based; settings: peptides 0-40 μg/ml, 18 h
Procedure: Ampicillin (0-20 μg/ml), chicken NK-lysin peptides (0-40 μg/ml), or LB broth alone were added to cultures of the bacteria and incubated for 18 h at […]. Bacterial growth was determined by measuring OD600. X axis: Ampicillin concentrations.
To evaluate the bactericidal activity of NK-lysin peptides, the minimum inhibitory concentration (MIC) values of the purified recombinant protein against E. coil strain BMH71-18 were determined using a standardized broth microdilution assay. Ampicillin MIC values against the bacteria were determined in parallel as positive controls. The assays were performed in accordance with Clinical and Laboratory Standards Institute (CLSI; Formerly National Committee for Clinical Laboratory Standards [NCCLS]) guidelines (NCCLS. 1999. In: Methods for Determining Bacterial Activity of Antimicrobial Agents, NCCLC, Wayne, Pa.; NCCLS. 2002. In: Performance Standards for Antimicrobial Disk and Dilution Susceptibility Tests for Bacteria isolated from Animals; Approved Standard, 2nd ed. NCCLS, Wayne, Pa.). […] The wells were incubated for 18 h at 37° C. with ambient air circulation and without shaking, and the optical density (OD) of each well was measured on a Synergy HT™ multi-modal plate reader (Bio-Tec Instruments, Winooski, Vt.) at 600 nm. Background values, derived from non-inoculated wells containing broth alone, were subtracted from all readings.

[3] = tested on: N. caninum tachyzoites; assay: Neospora caninum tachyzoite viability by trypan blue exclusion; format: cell-based; settings: 41° C.; for tachyzoites killed: 1 h incubation; for tachyzoites killing: 3 h incubation
Procedure: FIG. 3 depicts the dose- and time-dependant effects of chicken cNK-2 peptide on Neospora caninum tachyzoites. For investigating kinetics of NK-lysin peptides, N. caninum tachyzoites (1.0×10^7/ml) were incubated with medium (control) and two different concentrations (5 uM and 10 uM) of cNK-2 for 1 h and 3 h at 41° C.; tachyzoite viability was assessed by trypan blue exclusion. Experiments were performed in triplicate. RPMI medium alone served as the negative control. Data were expressed as means±SEM. Differences were considered statistically significant at P<0.05 by the Duncan's multiple range test.
N. caninum tachyzoites were prepared as described with modifications (Tuo et al. 2005. Infect. Immun. 73:5093-5100). N. caninum (NC-1 isolate) tachyzoites were cultured on bovine monocytes (Lindsay and Dubey. 1989. J. Parasitol. 75:163-165) in RPMI 1640 medium supplemented with 2% fetal calf serum and 50 μg/ml gentamicin at 37° C. in a 95% air and 5% CO2 atmosphere. N. caninum tachyzoite-infected host cells were collected, passed through 20- and 27-gauge needles, and pelleted by centrifugation at 1,000×g for 20 min at 4° C. Tachyzoites were then purified by centrifugation over a 40% Percoll gradient at 2,000×g for 30 min at 4° C. The tachyzoite pellet was then resuspended in PBS (pH 7.4) and washed three times. Finally tachyzoites were resuspended to 5.0×10^6/ml in 10% RPMI-1640 medium (Sigma). The tachyzoites were incubated for 1 h or 3 h at 41° C. with synthetic chicken NK-lysin peptides (5 μM and 10 μM), stained with trypan blue, and viable tachyzoites were counted microscopically.

[4] = tested on: C. parvum sporozoites; assay: Cryptosporidum parvum sporozoite viability by two-component fluorescent dye exclusion assay; format: cell-based; settings: 0.017, 0.17, 17 and 170 μg/ml; 2 hrs incubation; P<0.01 at 170 μg/ml, P<0.05 at the others
Procedure: FIG. 4 depicts the effect of NK lysine on Cryptosporidum parvum sporozoites. Freshly prepared C. parvum sporozoites were incubated with different doses of cNK-2 for […] and Cryptosporidia sporozoite viability was measured by a two-component fluorescent dye exclusion assay (LIVE/DEAD Reduced Biohazard Viability/Cytotoxicity Kits, Molecular Probes L-7013). The result is presented as the means plus standard deviations. Statistical analysis was performed by the paired t-test with the Statcel2 software. The level of significance was set at a P value of <0.05.
C. parvum sporozoites were prepared as described with modifications (Riggs and Perryman. 1987. Infect. Immun. 55:2081-2087). The C. parvum sporozoites were incubated with various concentrations of cNK-2 peptides or BSA and viability was assessed after 2 hrs of incubation. Viability of the sporozoites was measured by a two-component fluorescent dye exclusion assay (LIVE/DEAD Reduced Biohazard Viability/Cytotoxicity Kits, Molecular Probes L-7013). Results are presented as the means plus standard deviations. […] Statistical analysis was performed with the Statcel2 software.

[5] = tested on: E. acervulina oocysts; assay: In ovo plus intraperitoneal administration, protection against live oral E. acervulina challenge; format: in vivo, chickens
Procedure: FIGS. 6A and 6B depict the effect of cNK-2 treatment on body weight gains of birds infected with E. acervulina. At 1 day post-hatch, the chickens were infected with 500 sporulated oocysts of E. acervulina. Body weights were assessed at 5 days (FIG. 6A) and 10 days (FIG. 6B) post-infection. […] Each bar represents the mean±SEM values.
FIG. 7 depicts the effect of cNK-2 treatment on fecal oocyst shedding after oral challenge infection with live E. acervulina. At 1 day post-hatch, chickens were infected with 500 sporulated oocysts of E. acervulina and fecal oocysts were measured starting from day 5 to day 10 post-infection. Each bar represents the mean±SEM values.
For protection studies, broiler eggs at the 18-day-old embryo stage were allocated into 4 groups of 12 eggs each. An in ovo injector was used to inoculate eggs. The two control groups (Groups 1 and 2) received no NK lysin peptide and were mock inoculated with Hanks Balanced Salt Solution (HBSS) only. Two groups were inoculated with an in ova injection of cNK-2 peptide (ARS005-1; RD-27) at doses of 1 μg/embryo (Group 3) or 5 μg/embryo (Group 4). Three days later, birds were hatched and moved to brooder petersime units. Birds of Groups 3 and 4 were given a second injection with cNK-2 peptide at doses of 1 μg/bird and 5 μg/bird, respectively, using an intraperitoneal route as shown in Table 2. Birds that had been injected in ova with HBSS alone were not given an additional intraperitoneal injection (Table 2).
At one day post hatch, the birds from Groups 2, 3 and 4 were challenged orally with 500 sporulated, live Eimeria acervulina oocysts. Body weights were measured at 1 day post hatch, i.e., on the day of challenge (coccidia infection), at 5 days (FIG. 6A) and at 10 days (FIG. 6B) post-infection.
The effect of cNK-2 peptide on fecal oocyst shedding was also determined. […] Oocysts were collected between 5 and 10 days post infection and the number were counted using an established method (FIG. 7).

[6] = tested on: E. maxima; assay: Membrane permeabilization in E. maxima (data not shown); format: cell-based, Eimeria maxima
[7] = tested on: E. tenella; assay: Membrane permeabilization in E. tenella (data not shown); format: cell-based, Eimeria tenella

Molecule | cytolytic effect on E. acervulina sporozoites ([1]; melittin positive control at 2.5 μM and 5 μM) | effect on E. acervulina sporozoites viability [1] | antimicrobial activity against bacterial growth [2] | killing of E. acervulina sporozoites (viability, trypan blue) ([1]; 50 μg/ml or 100 μg/ml peptide, 3 h at 41° C., HBSS control, P<0.01) | tachyzoites killed ([3]; 5 uM) | tachyzoites killing ([3]; 5 uM) | tachyzoites killed ([3]; 10 uM) | tachyzoites killing ([3]; 10 uM) | viability of C. parvum sporozoites [4] | body weights of infected birds compared with HBSS control birds ([5]; 1 μg and 5 μg in ovo then intraperitoneal, 5 and 10 days post-infection, 500 oocysts, P<0.05) | fecal oocyst shedding ([5]; dose of at least 5 μg, oocysts collected 5 to 10 days post infection, P<0.05) | protective effect against live oral challenge infection ([5]; in ovo injections followed by intraperitoneal injections, 500 E. acervulina oocysts) | membrane permeabilization [6] | membrane permeabilization [7]
CC[C@H](C)[C@H](NC(=O)CN)C(=O)NCC(=O)N[C@@H](C)C(=O)N[C@H](C(=O)N[C@@H](CC(C)C)C(=O)N[C@@H](CCCCN)C(=O)N[C@H](C(=O)N[C@@H](CC(C)C)C(=O)N[C@H](C(=O)N[C@H](C(=O)NCC(=O)N[C@@H](CC(C)C)C(=O)N1CCC[C@H]1C(=O)N[C@@H](C)C(=O)N[C@@H](CC(C)C)C(=O)N[C@H](C(=O)N[C@@H](CO)C(=O)N[C@@H](Cc1c[nH]c2ccccc12)C(=O)N[C@H](C(=O)N[C@@H](CCCCN)C(=O)N[C@@H](CCCNC(=N)N)C(=O)N[C@@H](CCCCN)C(=O)N[C@@H](CCCNC(=N)N)C(=O)N[C@@H](CCC(N)=O)C(=O)N[C@@H](CCC(N)=O)C(N)=O)[C@@H](C)CC)[C@@H](C)CC)[C@@H](C)O)[C@@H](C)O)C(C)C)C(C)C [Melittin, reference compound] | total disruption of the cellular membrane | – | – | – | – | – | – | – | – | – | – | – | – | –
cNK-4: synthetic chicken NK-lysin peptide (88-117), AINNALNKVCSTGRRQRSICKQLLKKLRQQ, SEQ ID NO. 4 (listed as Gallus gallus) | – | no effect | Neither chicken NK-lysin nor the NK-lysin peptides, cNK-2 and cNK-4, demonstrated antimicrobial activity | – | – | – | – | – | – | – | – | – | – | –
RRQRSICKQLLKKLRQQLSDALQNNDD-NH2 [cNK-2] | – | time- and dose-dependent effect | Neither chicken NK-lysin nor the NK-lysin peptides, cNK-2 and cNK-4, demonstrated antimicrobial activity | significantly killed | about 46% | 71% | ~60% | 86% | significant decreases in the viability | significantly higher body weights | significant reduction of fecal oocyst shedding | significant protective effect | caused membrane permeabilization | caused membrane permeabilization
